What all share (assay): ≥ marks a high value that may be exact or a test limit, other limits are often not marked, values filed in µg/mL are converted to µM
For assay [1], the system named is Vibrio ordalii KCCM 41669.
Assay [2] relates to Aeromonas salmonicida RFAS1.
For assay [3], the system named is Edwardsiella tarda FP4130.
In assay [4] the test system is Vibrio alginolyticus KCCM 2928.
Assay [5] deals with Vibrio harveyi ATCC 14126.
Assay [6] relates to Streptococcus iniae FP5228.
For assay [7], the system named is Staphylococcus aureus ATCC 43300.
Assay [8] relates to Pseudomonas aeruginosa ATCC 27853.
Assay [9] has as its system Escherichia coli O157.
Assay [10] relates to Bacillus cereus ATCC 11778.
The test system of assay [11] is Staphylococcus aureus ATCC 25923.
The test system of assay [12] is Enterococcus faecalis ATCC 29212.
Assay [13] relates to Shigella sonnei ATCC 11060.
The subject of assay [14] is Salmonella enterica subsp. enterica serovar Typhimurium ATCC 13311.
The test system of assay [15] is Staphylococcus epidermidis ATCC 12228.
For assay [16], the system named is Escherichia coli ATCC 25922.
The test system of assay [17] is Vibrio cholerae O1 Inaba.
Assay [18] has as its system Staphylococcus aureus ATCC 9144.
In assay [19] the test system is Staphylococcus aureus 3968.
The subject of assay [20] is Staphylococcus aureus E4049.
Assay [21] relates to Staphylococcus aureus 5118.
Assay [22] deals with Bacillus subtilis KCTC 1998.
Assay [23] relates to Staphylococcus aureus CCARM 3518.
Assay [24] deals with Candida albicans KCTC 7270.
Assay [25] relates to Pseudomonas aeruginosa 4891.
Assay [26] has as its system Escherichia coli CCARM 1238.
Assay [27] deals with Listeria monocytogenes KCTC 3710.
Assay [28] relates to Staphylococcus aureus CCARM 3090.
Assay [29] relates to Pseudomonas aeruginosa 4007.
Assay [30] deals with Escherichia coli CCARM 1229.
In assay [31] the test system is Trichosporon beigelii KCTC 7707.
The subject of assay [32] is Salmonella typhimurium KCTC 1926.
Assay [33] deals with Candida albicans ATCC 10231.
Assay [34] concerns Candida parapsilosis CBS 604.
Assay [35] concerns Saccharomyces cerevisiae SZMC 0644.
The test system of assay [36] is Candida krusei CBS 573.
Assay [37] has as its system Pseudomonas aeruginosa ATCC 47085.
For assay [38], the system named is Acinetobacter baumannii ATCC 19606.
The test system of assay [39] is Klebsiella pneumoniae ATCC 13883.
Assay [40] deals with Staphylococcus aureus LAC.

The text below walks through data of DBAASP.

Converted amounts (≈) assume the structure as drawn.

Usually MIC stands for the lowest concentration found to suppress growth.

Regarding `CC[C@H](C)[C@H](NC(=O)[C@H](CC(N)=O)NC(=O)[C@H](CCCCN)NC(=O)[C@H](Cc1c[nH]c2ccccc12)NC(=O)CNC(=O)[C@H](CCC(=O)O)NC(=O)[C@H](CCCCN)NC(=O)[C@H](CC(C)C)NC(=O)[C@H](CCC(=O)O)NC(=O)[C@H](CCC(N)=O)NC(=O)[C@H](Cc1ccccc1)NC(=O)[C@@H](N)Cc1ccccc1)C(=O)N[C@@H](CCCCN)C(=O)N[C@@H](CCCCN)C(=O)N[C@@H](C)C(=O)O` [FFQELKEGWKNIKKA], the MIC in [1] was 2 µM (≈ 3.73 µg/mL); in assay [2], 7.8 µM (≈ 14.6 µg/mL); in [3], not below 62.5 µM; in assay [4] it was 7.8 µM (≈ 14.6 µg/mL); in assay [5], not below 125 µM; in assay [6] it was 15.6 µM (≈ 29.1 µg/mL).
Turning to `CC(C)C[C@H](NC(=O)CNC(=O)[C@H](CCCN=C(N)N)NC(=O)[C@H](CS)NC(=O)[C@H](CC(=O)O)NC(=O)CNC(=O)CNC(=O)[C@H](CO)NC(=O)[C@@H](N)Cc1ccccc1)C(=O)N[C@@H](CCCN=C(N)N)C(=O)N[C@@H](CCCN=C(N)N)C(=O)N[C@@H](CCCN=C(N)N)C(=O)N[C@@H](CS)C(=O)N[C@@H](Cc1ccccc1)C(=O)N[C@@H](CS)C(=O)N[C@H](C(=O)N[C@@H](CCCN=C(N)N)C(N)=O)[C@@H](C)O` [FSGGDCRGLRRRCFCTR], the MIC in assay [7] was more than 251 µM; in [8], more than 251 µM; in assay [9] it was not below 229 µM; in assay [10], not below 251 µM; in assay [11], more than 251 µM; in assay [12], 251 µM (≈ 500 µg/mL). Also, the MIC in assay [13] was not below 126 µM; in assay [14] it was 31.4 µM (≈ 62.5 µg/mL); in [15], 15.7 µM (≈ 31.2 µg/mL); in [16], more than 251 µM; in assay [17] it was not below 126 µM.
As to `CSCC[C@H](NC(=O)[C@H](C)NC(=O)[C@H](CC(C)C)NC(=O)[C@@H](N)CCCCN)C(=O)N[C@@H](CO)C(=O)N[C@@H](CCSC)C(=O)N[C@@H](CO)C(=O)N[C@@H](Cc1ccccc1)C(=O)N[C@@H](CC(N)=O)C(=O)N[C@@H](Cc1ccccc1)C(=O)N[C@H](C(=O)N[C@@H](Cc1ccccc1)C(=O)N[C@@H](Cc1ccc(O)cc1)C(=O)N[C@@H](Cc1ccccc1)C(=O)N[C@@H](CCSC)C(=O)N[C@H](C(=O)N[C@@H](CC(N)=O)C(=O)N[C@@H](Cc1ccccc1)C(=O)N[C@@H](CC(=O)O)C(=O)N[C@@H](CC(=O)O)C(=O)O)C(C)C)C(C)C` [KLAMSMSFNFVFYFMVNFDD], the MIC was not below 125 µM in assay [18], not below 250 µM in assay [19], 15.5 µM (≈ 38 µg/mL) in assay [20] and not below 125 µM in assay [21].
`CC[C@H](C)[C@H](NC(=O)[C@H](CCCCN)NC(=O)[C@H](CCCCN)NC(=O)[C@@H](NC(=O)[C@H](C)NC(=O)[C@H](CCC(=O)O)NC(=O)[C@H](Cc1cnc[nH]1)NC(=O)[C@@H](NC(=O)CNC(=O)[C@H](CCC(N)=O)NC(=O)[C@H](Cc1ccccc1)NC(=O)[C@@H](NC(=O)[C@H](CCCCN)NC(=O)[C@H](CCCCN)NC(=O)[C@H](CC(C)C)NC(=O)[C@H](C)NC(=O)[C@H](CC(N)=O)NC(=O)[C@@H](N)CC(C)C)C(C)C)[C@@H](C)CC)[C@@H](C)CC)C(N)=O` [LNALKKVFQGIHEAIKKI]: the MIC in assay [8] turned out to be 4 µM (≈ 8.2 µg/mL); in [22] it was 4 µM (≈ 8.2 µg/mL); in [23], 4 µM (≈ 8.2 µg/mL); in [24], 16 µM (≈ 32.8 µg/mL); in [25], 8 µM (≈ 16.4 µg/mL); in [26] it was 2 µM (≈ 4.1 µg/mL). For the same compound, the MIC in assay [11] came out at 4 µM (≈ 8.2 µg/mL); in [27] it was 8 µM (≈ 16.4 µg/mL); in assay [28] it was 4 µM (≈ 8.2 µg/mL); in assay [29], 4 µM (≈ 8.2 µg/mL); in assay [30], 2 µM (≈ 4.1 µg/mL); in assay [31], 16 µM (≈ 32.8 µg/mL). Further, the minimum inhibitory concentration (MIC) in assay [16] amounted to 2 µM (≈ 4.1 µg/mL); in assay [32], 4 µM (≈ 8.2 µg/mL).
Turning to `NCCCC[C@@H]1NC(=O)[C@H](CCCCN)NC(=O)[C@H](Cc2cnc[nH]2)NC(=O)[C@H](CCCCN)NC(=O)[C@@H](NC(=O)[C@H](CC(N)=O)NC(=O)[C@@H](N)CC(N)=O)CSSC[C@@H](C(=O)O)NC(=O)CNC(=O)[C@H](CO)NC(=O)CNC1=O` [NNCKHKKGSGC], the MIC was 42.5 µM (≈ 49.9 µg/mL) in assay [33], not below 42.5 µM in assay [34], not below 42.5 µM in assay [35] and not below 42.5 µM in assay [36].
In the case of `CC(=O)N[C@@H](CCCN=C(N)N)C(=O)N1CCC[C@H]1C(=O)N[C@@H](CC(=O)O)C(=O)N[C@@H](CCCCN)C(=O)N1CCC[C@H]1C(=O)N[C@@H](CCCN=C(N)N)C(=O)N1CCC[C@H]1C(=O)N[C@@H](Cc1ccc(O)cc1)C(=O)N[C@@H](CC(C)C)C(=O)N1CCC[C@H]1C(=O)N[C@@H](CCCN=C(N)N)C(=O)N1CCC[C@H]1C(=O)N[C@@H](CCCN=C(N)N)C(=O)N1CCC[C@H]1C(=O)N1CCC[C@H]1C(=O)N[C@@H](CCCN=C(N)N)C(=O)N1CCC[C@H]1C(=O)N[C@H](C(=O)N[C@@H](CCCN=C(N)N)C(N)=O)C(C)C` [RPDKPRPYLPRPRPPRPVR], the MIC in assay [37] was not below 100 µM; in assay [38], more than 100 µM; in assay [16], 2.6 µM (≈ 6.22 µg/mL); in [39] it was 2 µM (≈ 4.78 µg/mL).
In the case of `NC(N)=NCCC[C@H](NC(=O)[C@H](CCCN=C(N)N)NC(=O)[C@H](CCCN=C(N)N)NC(=O)[C@@H](N)CCCN=C(N)N)C(=O)N[C@@H](Cc1c[nH]c2ccccc12)C(=O)N[C@@H](Cc1c[nH]c2ccccc12)C(=O)N[C@@H](Cc1c[nH]c2ccccc12)C(=O)N[C@@H](Cc1c[nH]c2ccccc12)C(=O)N[C@@H](Cc1c[nH]c2ccccc12)C(=O)O` [RRRRWWWWW], the values for the MIC in assay [40] and in [16] were 10.2 µM (≈ 16 µg/mL) and 20.3 µM (≈ 32 µg/mL), respectively.
